# In patent publication US6869941B2, “Combination of drospirenone and an estrogen sulphamate for HRT” (Schering AG, priority 2001, dated 2005):
# Experiments:
# Type in all cases: physicochemical
# [1] = Solubility of drospirenone in water and aqueous buffers; conditions: water and aqueous buffers at various pH values
# [2] = Chemical stability of drospirenone under acid and alkaline conditions
# [3] = In vitro dissolution, USP XXIII Paddle Method; conditions: micronized form; rapid dissolution defined as at least 70% over about 30 minutes from a 3 mg tablet in 900 ml of water at 37° C., apparatus 2 at 50 rpm
smiles,measurement,setting,value
C[C@]12CCC(=O)C=C1[C@@H]1C[C@@H]1[C@H]1[C@@H]3[C@@H]4C[C@@H]4[C@@]4(CCC(=O)O4)[C@@]3(C)CC[C@@H]12 [Drospirenone],solubility,[1],sparingly soluble
same,stability under acid conditions,[2]; acid conditions,rearranged to an inactive isomer
same,stability under alkaline conditions,[2]; alkaline conditions,hydrolysed
same,dissolution of the active compound from the dosage unit in vitro,[3],rapid dissolution
